From patent US7947669B2, “Agent for improving insulin resistance” (Morinaga Milk Industry Co., Ltd., priority 2005, dated 2011)

Key:
Assay type in all cases: in vivo
[1] = system: AKR mice in which insulin resistance is induced by feeding with a high-fat diet; assay: Level of free fatty acid in serum of high-fat diet AKR mice; conditions: for Test Sample/Negative sample (free fatty acid): serum free fatty acid relative to negative sample, 60th day, 25 μg/kg oral once a day; for Free fatty acid: serum, fasting, 60th day of oral administration 25 μg/kg of body weight once a day, AKR mice on high-fat diet
Experimental: Each of 9,19-cyclolanostan-3-ol and 24-methylene-9,19-cyclolanostan-3-ol produced in Preparation Example 3 was dissolved in DMSO, and each concentration was adjusted to 1 μg/ml with distilled water to thereby prepare Test Samples 1 and 2.
These mice were divided into groups, each consisting of 8 mice.

MCP-1 = assay: Production quantity of MCP-1 of adipose tissues from treated high-fat diet AKR mice (ELISA); conditions: 60th day, 25 μg/kg oral once a day; for inhibitory effect on the production of MCP-1 compared with negative sample: adipose tissue, Tukey-Kramer's test; for MCP-1: culture supernatant of epididymal fat tissue after 1 hour culture
Experimental: (§1) This example was performed in order to evaluate an effect of the agent for improving insulin resistance of the present invention on production quantities of TNF-α and MCP-1 in each cell of adipose tissue by using AKR mice in which insulin resistance is induced by feeding with a high-fat diet.
(§2) In Example 2, the same Test Samples 1, 2 and the negative sample as those prepared in Example 1 were used.
(§3) These mice were divided into groups, each consisting of 8 mice. […] After 1 hour of the culture, culture supernatants were collected, and concentrations of TNF-α and MCP-1 in the culture supernatants were measured by ELISA method (Biosource).

[2] = system: AKR mice in which insulin resistance is induced by feeding with a high-fat diet; assay: Insulin tolerance test in high-fat diet AKR mice; conditions: 45th day, 25 μg/kg oral once a day, 4 h fast, human insulin 0.75 U/Kg i.p., up to 60 minutes (FIG. 1)
Experimental: This example was performed in order to evaluate an enhancing effect of the agent for improving insulin resistance of the present invention on insulin sensitivity by performing an insulin tolerance test using AKR mice in which insulin resistance is induced by feeding with a high-fat diet.
In Example 3, the same Test Samples 1, 2 and the negative sample as those prepared in Examples 1 and 2 were used.
These mice were divided into groups, each consisting of 8 mice. […] In the present example, the insulin tolerance test was performed in such a manner that: the mice were fasted for 4 hours, and were then intraperitoneally administered with 0.75 U/Kg of body weight of a human insulin (Eli Lily and Company); and changes with time in blood glucose level were measured from the initiation of the administration of the insulin to after 60 minutes later.

TNF-α = assay: Production quantity of TNF-α of adipose tissues from treated high-fat diet AKR mice (ELISA); conditions: 60th day, 25 μg/kg oral once a day; for inhibitory effect on the production of TNF-α compared with negative sample: adipose tissue, Tukey-Kramer's test; for TNF-α: culture supernatant of epididymal fat tissue after 1 hour culture
Experimental: as §1, §2, §3

`CC(C)CCCC(C)C1CCC2(C)C3CCC4C(C)(C)C(O)CCC45CC35CCC12C` (centres unmarked) [Test Sample 1, 9,19-cyclolanostan-3-ol] was tested, and the “Test Sample/Negative sample (free fatty acid)” value [1] was 81.1%, the Free fatty acid [1] was 1.20 ± 0.38 mEq/l and the “inhibitory effect on the production of MCP-1 compared with negative sample” value (MCP-1) was “significant inhibitory effects”. The MCP-1 (MCP-1) was 89.83 ± 6.16 pg/mL, the “change in blood glucose level after insulin administration” value [2] was “rapid decrease in blood glucose levels” and the “inhibitory effect on the production of TNF-α compared with negative sample” value (TNF-α) was “significant inhibitory effects”. It also gave a TNF-α (TNF-α) of 29.80 ± 2.58 pg/mL.

`C=C(CCC(C)C1CCC2(C)C3CCC4C(C)(C)C(O)CCC45CC35CCC12C)C(C)C` (centres unmarked) [Test Sample 2, 24-methylene-9,19-cyclolanostan-3-ol] was tested, and the “Test Sample/Negative sample (free fatty acid)” value [1] was 81.1%, the Free fatty acid [1] was 1.20 ± 0.25 mEq/l and the “inhibitory effect on the production of MCP-1 compared with negative sample” value (MCP-1) was “significant inhibitory effects”. For the same compound, the MCP-1 (MCP-1) was 99.32 ± 7.80 pg/mL, the “change in blood glucose level after insulin administration” value [2] was “rapid decrease in blood glucose levels” and the “inhibitory effect on the production of TNF-α compared with negative sample” value (TNF-α) was “significant inhibitory effects”. The TNF-α (TNF-α) was 33.59 ± 0.59 pg/mL.
